From patent publication US20050074879A1, “Antisense oligonucleotide modulation of STAT3 expression” (priority 2000, published 2005)
Oligonucleotides are written 5' to 3', each unit as a sugar letter and its base; * is a phosphorothioate linkage, no mark a phosphodiester; rarer units and linkages stand in square brackets, end groups in braces. Plain capitals give the bases only. e = 2'-O-(2-methoxyethyl) (MOE); [5mC] = 5-methylcytosine; d = 2'-deoxy (DNA)

Tests used:
Human STAT3 mRNA [1] = experiment: Human STAT3 mRNA dose response in T-24 cells, real-time PCR with PPS 2033 (Table 19); assay type: cell-based; conditions: 16 hours, − decrease, + increase relative to untreated control
Procedure, shortened: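 T-24 cells got oligonucleotide at 18.75, 37.5, 75 or 150 nM with LIPOFECTIN (3 ug/mL per 100 nM oligo) for 16 h. STAT3 mRNA was quantified by real-time RT-PCR with primer-probe set PPS 2033, normalized to RiboGreen total RNA, and expressed as change versus untreated cells.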

Human STAT3 mRNA [2] = experiment: Human STAT3 mRNA dose response in A549 cells, real-time PCR with PPS 199 (Table 20); assay type: cell-based; conditions: 16 hours, LIPOFECTIN, − decrease, + increase relative to untreated control cells
Procedure: An additional dose-response experiment was preformed in A549 cells. A549 cells were treated with 18.75, 37.5, 75, or 150 nM of oligonucleotide mixed with 3 ug/mL LIPOFECTIN per 100 nM oligonucleotide as described by other examples herein. Control oligonucleotides used were ISIS 129686 (SEQ ID NO: 394) and ISIS 129690 (SEQ ID NO: 393). Untreated cells served as controls. Following 16 hours of treatment, RNA was prepared from cells for subsequent real-time PCR analysis.
Human STAT3 mRNA expression levels were quantitated by real-time PCR using primer probe set PPS 199 and gene target quantities were normalized using Ribogreen as described in other examples herein. A “−” or “+” designation in the dose response results indicates a decrease or increase of STAT 3 mRNA expression, respectively, relative to untreated control cells.

Substance | Percent change of STAT3 expression using PPS 2033 (Human STAT3 mRNA [1]; 18.75 nM oligonucleotide) [%] | Percent change of STAT3 expression using PPS 2033 (Human STAT3 mRNA [1]; 37.5 nM oligonucleotide) [%] | Percent change of STAT3 expression using PPS 2033 (Human STAT3 mRNA [1]; 75 nM oligonucleotide) [%] | Percent change of STAT3 expression using PPS 2033 (Human STAT3 mRNA [1]; 150 nM oligonucleotide) [%] | Percent change of STAT3 expression in A549 cells using PPS 199 (Human STAT3 mRNA [2]; 18.75 nM oligonucleotide) [%] | Percent change of STAT3 expression in A549 cells using PPS 199 (Human STAT3 mRNA [2]; 37.5 nM oligonucleotide) [%] | Percent change of STAT3 expression in A549 cells using PPS 199 (Human STAT3 mRNA [2]; 75 nM oligonucleotide) [%] | Percent change of STAT3 expression in A549 cells using PPS 199 (Human STAT3 mRNA [2]; 150 nM oligonucleotide) [%]
337332 (antisense eG*eA*eA*eG*e[5mC]*d[5mC]*d[5mC]*dT*dT*dG*d[5mC]*d[5mC]*dA*dG*d[5mC]*e[5mC]*eA*eT*eG*eT) [compound 337332] | −66 | −79 | −85 | −91 | −31 | −61 | −77 | −87
337333 (antisense eA*eA*eG*eG*eA*dG*dA*dA*dG*d[5mC]*d[5mC]*d[5mC]*dT*dT*dG*e[5mC]*e[5mC]*eA*eG*e[5mC]) [compound 337333] | −46 | −70 | −82 | −90 | −8 | −39 | −59 | −75
337348 (antisense eT*e[5mC]*e[5mC]*eG*eA*dA*dT*dG*d[5mC]*d[5mC]*dT*d[5mC]*d[5mC]*dT*d[5mC]*e[5mC]*eT*eT*eG*eG) [compound 337348] | −53 | −76 | −83 | −86 | −26 | −43 | −55 | −77
